From US20250101020A1, “SPIROCYCLIC LACTAM INHIBITORS” (Incyte Corporation, priority 2023, published 2025)
Structures can show the parent of a compound that is named as a salt.

What was measured:
[1] = molecular target: pseudo-kinase domain (JH2) of human Wild Type JAK2 (Homo sapiens (Human), UniProt O60674, F794H/W659A/W777A); test: JAK2 LanthaScreen JH2-WT Binding Assay; conditions: 50 nM tracer, 1 hour at 25° C.
Method: Example B. JAK2 LanthaScreen JH2-WT Binding Assay
(§1) JAK2 JH2-WT binding assay utilizes pseudo-kinase domain (JH2, amino-acids 536-812 with 3 surface mutations W659A, W777A, F794H) of human Wild Type JAK2 expressed as C-terminal His-Avi-tagged, biotinylated protein in a baculovirus expression system (BPS Bioscience, Catalog #79463). The assay was conducted in black 384-well polystyrene plates in a final reaction volume of 20 μL. JAK2 JH2-WT (0.145 nM) was incubated with compounds (100 nL serially diluted in DMSO) in the presence of 50 nM Fluorescent JAK2-JH2 Tracer (MedChem Express Catalog #HY-102055) and 0.25 nM Streptavidin-Tb cryptate (Cisbio Part #610SATLB) in assay buffer (50 mM Tris, pH=7.5, 10 mM MgCl2, 0.01% Brij-35, 0.1% BSA, 1 mM EGTA, 5% Glycerol and 5 mM DTT). Non-specific binding was accessed in the presence of 2 mM ATP. After incubation for 1 hour at 25° C., LanthaScreen signals were read on a PHERAstar FS plate reader (BMG LABTECH). Data was analyzed with IDBS XLfit and GraphPad Prism 5.0 software using a four parameter dose response curve to determine IC50 for each compound.

[2] = molecular target: T1, catalytic domain (JH1) of human JAK2 (Homo sapiens (Human), UniProt O60674); test: JAK2 HTRF Enzyme Activity Assay; type: biochemical; conditions: ATP 30 μM; read-out: ENZ 30UMATP IC50
Method: Example D. JAK2 HTRF Enzyme Activity Assay
JAK2 enzyme activity assays utilize catalytic domain (JH1, amino acids 808-1132) of human JAK2 expressed as N-terminal His-tagged protein in a baculovirus expression system (BPS Bioscience, Catalog #40450). The assays was conducted in black 384-well polystyrene plates in a final reaction volume of 20 μL. JAK2 (0.015 nM) was incubated with compounds (100 nL serially diluted in DMSO) in the presence of ATP (30 μM or 1 mM) and 500 nM Biotin-labeled EQEDEPEGDYFEWLE (SEQ ID NO.: 1) peptide (BioSource International, custom synthesis) in assay buffer (50 mM Tris, pH=7.5, 10 mM MgCl2, 0.01% Brij-35, 0.1% BSA, 1 mM EGTA, 5% Glycerol and 5 mM DTT) for 60 minutes at 25° C. The reactions were stopped by the addition of 10 μL of detection buffer (50 mM Tris, pH 7.8, 0.5 mg/mL BSA, 150 mM NaCl), supplemented with EDTA, LANCE Eu-W1024 anti-phosphotyrosine (PY20), (PerkinElmer, Catalog #AD0067) and Streptavidin SureLight APC (PerkinElmer Catalog #CR130-100), for a final concentration of 15 mM, 1.5 nM and 75 nM, respectively. HTRF signals were read after 30 minutes incubation at room temperature on a PHERAstar FS plate reader (BMG LABTECH). Data was analyzed with IDBS XLfit and GraphPad Prism 5.0 software using a four parameter dose response curve to determine IC50 for each compound.
Target sequence in this assay (O60674 808-1132): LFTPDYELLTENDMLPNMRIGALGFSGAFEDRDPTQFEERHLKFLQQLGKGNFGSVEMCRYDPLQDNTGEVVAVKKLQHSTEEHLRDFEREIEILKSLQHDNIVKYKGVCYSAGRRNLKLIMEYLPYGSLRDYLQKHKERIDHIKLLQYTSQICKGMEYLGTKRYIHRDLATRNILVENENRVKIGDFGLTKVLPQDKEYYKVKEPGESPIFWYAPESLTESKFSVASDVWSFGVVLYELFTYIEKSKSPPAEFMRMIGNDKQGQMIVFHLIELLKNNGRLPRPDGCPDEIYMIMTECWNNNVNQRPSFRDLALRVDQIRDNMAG

[3] = molecular target: pseudo-kinase domain (JH2) of human V617F mutant JAK2 (Homo sapiens (Human), UniProt O60674, F794H/V617F/W659A/W777A); test: JAK2 LanthaScreen JH2-V617F Binding Assay; conditions: 50 nM tracer, 1 hour at 25° C.
Method: Example C. JAK2 LanthaScreen JH2-V617F Binding Assay
as §1, with “JH2-V617F” for “JH2-WT”, “V617F mutant” for “Wild Type”, “#79498).” for “#79463).”, “JH2-V617F (0.26” for “JH2-WT (0.145”

[4] = molecular target: T1, catalytic domain (JH1) of human JAK2; test: JAK2 LanthaScreen JH1 Binding Assay; conditions: JAK2 JH1, 50 nM tracer, 2 hours at 25° C.
Method: Example A. JAK2 LanthaScreen JH1 Binding Assay
JAK2 JH1 binding assay utilizes catalytic domain (JH1, amino acids 826-1132) of human JAK2 expressed as N-terminal FLAG-tagged, biotinylated protein in a baculovirus expression system (Carna Biosciences, Product #08-445-20N). The assay was conducted in black 384-well polystyrene plates in a final reaction volume of 20 μL. JAK2 JH1 (1.5 nM) was incubated with compounds (100 nL serially diluted in DMSO) in the presence of 50 nM Fluorescent JAK2-JH1 Tracer and 0.5 nM Streptavidin-Tb cryptate (Cisbio Part #610SATLB) in assay buffer (50 mM Tris, pH=7.5, 10 mM MgCl2, 0.01% Brij-35, 0.1% BSA, 1 mM EGTA, 5% Glycerol and 5 mM DTT). Non-specific binding was accessed in the presence of 2 mM ATP. After incubation for 2 hours at 25° C., LanthaScreen signals were read on a PHERAstar FS plate reader (BMG LABTECH). Data was analyzed with IDBS XLfit and GraphPad Prism 5.0 software using a four parameter dose response curve to determine IC50 for each compound.
Target sequence in this assay (O60674 826-1132): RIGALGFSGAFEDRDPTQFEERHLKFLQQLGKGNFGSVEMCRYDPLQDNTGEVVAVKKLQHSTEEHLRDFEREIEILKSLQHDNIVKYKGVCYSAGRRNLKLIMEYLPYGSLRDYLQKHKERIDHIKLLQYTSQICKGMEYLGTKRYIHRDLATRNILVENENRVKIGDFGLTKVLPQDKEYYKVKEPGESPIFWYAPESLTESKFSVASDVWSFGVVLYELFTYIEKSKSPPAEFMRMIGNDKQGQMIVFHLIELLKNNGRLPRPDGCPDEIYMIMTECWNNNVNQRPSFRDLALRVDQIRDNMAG

Sequence of pseudo-kinase domain (JH2) of human V617F mutant JAK2 (O60674 536-812 V617F/W659A/W777A/F794H): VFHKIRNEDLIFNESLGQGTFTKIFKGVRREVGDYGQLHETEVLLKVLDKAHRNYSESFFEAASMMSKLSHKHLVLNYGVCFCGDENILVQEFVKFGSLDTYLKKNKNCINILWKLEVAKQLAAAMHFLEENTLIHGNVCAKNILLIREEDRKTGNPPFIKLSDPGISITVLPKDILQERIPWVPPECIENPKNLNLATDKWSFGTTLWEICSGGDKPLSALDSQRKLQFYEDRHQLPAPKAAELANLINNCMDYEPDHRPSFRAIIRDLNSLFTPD
Sequence of pseudo-kinase domain (JH2) of human Wild Type JAK2 (O60674 536-812 W659A/W777A/F794H): as the sequence (O60674 536-812 V617F/W659A/W777A/F794H) above, with F82V counted along it

Compound: [2H]C([2H])([2H])N1C(=O)C2(CCC(NC(=O)NCC)CC2)c2cc(Nc3ccc4cccc(C(F)(F)F)c4n3)ncc21 (single isomer, unassigned) [Example 1, 1-Ethyl-3-((1s,4s)-1′-(methyl-d3)-2′-oxo-5′-((8-(trifluoromethyl)quinolin-2-yl)amino)-1′,2′-dihydrospiro[cyclohexane-1,3′-pyrrolo[2,3-c]pyridin]-4-yl)urea, trifluoroacetate salt]
- IC50 [1]: ≤ 100 nM

Compound: [2H]C([2H])([2H])N1c2cnc(Nc3ccc4c(n3)c(-c3cnn(C(F)(F)F)c3)nn4C)cc2[C@]2(C[C@@H](CNC(=O)C3CC3)C2)C1=O [Example 7, N-(((1r,3r)-1′-(Methyl-d3)-5′-((1-methyl-3-(1-(trifluoromethyl)-1H-pyrazol-4-yl)-1H-pyrazolo[4,3-b]pyridin-5-yl)amino)-2′-oxo-1′,2′-dihydrospiro[cyclobutane-1,3′-pyrrolo[2,3-c]pyridin]-3-yl)methyl)cyclopropanecarboxamide, trifluoroacetate salt]
- IC50 [2]: > 2500 nM
- IC50 [3]: ≤ 100 nM

Compound: [2H]C([2H])([2H])N1c2cnc(Nc3ccc4cccc(C(F)(F)F)c4n3)cc2[C@]2(C[C@@H](CNC(=O)OC)C2)C1=O [Example 3, Methyl (((1r,3r)-1′-(methyl-d3)-2′-oxo-5′-((8-(trifluoromethyl)quinolin-2-yl)amino)-1′,2′-dihydrospiro[cyclobutane-1,3′-pyrrolo[2,3-c]pyridin]-3-yl)methyl)carbamate, trifluoroacetate salt]
- IC50 [2]: > 2500 nM
- IC50 [3]: ≤ 100 nM

Compound: [2H]C([2H])([2H])N1c2cnc(Nc3ccc4c(n3)c(-c3cnn(C(F)(F)F)c3)nn4C)cc2[C@]2(C[C@@H](CO)C2)C1=O [Example 5, (1r,3r)-3-(Hydroxymethyl)-1′-(methyl-d3)-5′-((1-methyl-3-(1-(trifluoromethyl)-1H-pyrazol-4-yl)-1H-pyrazolo[4,3-b]pyridin-5-yl)amino)spiro[cyclobutane-1,3′-pyrrolo[2,3-c]pyridin]-2′(1′H)-one, trifluoroacetate salt]
- IC50 [2]: > 2500 nM
- IC50 [3]: ≤ 100 nM

Compound: CCNC(=O)NC1CCC2(CC1)C(=O)N(C)c1cnc(Nc3ccc4cccc(C(F)(F)F)c4n3)cc12 (single isomer, unassigned) [Example 2, 1-Ethyl-3-((1r,4r)-1′-(methyl-d3)-2′-oxo-5′-((8-(trifluoromethyl)quinolin-2-yl)amino)-1′,2′-dihydrospiro[cyclohexane-1,3′-pyrrolo[2,3-c]pyridin]-4-yl)urea, trifluoroacetate salt]
- IC50 [1]: ≤ 100 nM

Compound: [2H]C([2H])([2H])N1c2cnc(Nc3ccc4c(n3)c(-c3cnn(C(F)(F)F)c3)nn4C)cc2[C@]2(C[C@@H](CNC(=O)OC)C2)C1=O [Example 6, Methyl (((1r,3r)-1′-(methyl-d3)-5′-((1-methyl-3-(1-(trifluoromethyl)-1H-pyrazol-4-yl)-1H-pyrazolo[4,3-b]pyridin-5-yl)amino)-2′-oxo-1′,2′-dihydrospiro[cyclobutane-1,3′-pyrrolo[2,3-c]pyridin]-3-yl)methyl)carbamate, trifluoroacetate salt]
- IC50 [2]: > 2500 nM
- IC50 [3]: ≤ 100 nM

Compound: [2H]C([2H])([2H])N1c2cnc(Nc3ccc4cccc(C(F)(F)F)c4n3)cc2[C@]2(C[C@@H](CNC(=O)C3CC3)C2)C1=O [Example 4, N-(((1r,3r)-1′-(Methyl-d3)-2′-oxo-5′-((8-(trifluoromethyl)quinolin-2-yl)amino)-1′,2′-dihydrospiro[cyclobutane-1,3′-pyrrolo[2,3-c]pyridin]-3-yl)methyl)cyclopropanecarboxamide, trifluoroacetate salt]
- IC50 [2]: > 2500 nM
- IC50 [3]: ≤ 100 nM

Compound: CCNC(=O)NC1CCC2(CC1)C(=O)N(C)c1cnc(Nc3ccc4cccc(C(F)(F)F)c4n3)cc12 (single isomer, unassigned) [Example 1, 1-Ethyl-3-((1s,4s)-1′-(methyl-d3)-2′-oxo-5′-((8-(trifluoromethyl)quinolin-2-yl)amino)-1′,2′-dihydrospiro[cyclohexane-1,3′-pyrrolo[2,3-c]pyridin]-4-yl)urea, trifluoroacetate salt]
- IC50 [2]: > 2500 nM
- IC50 [3]: ≤ 100 nM
- IC50 [4]: > 2500 nM
